According to publication PMC6471242, “Dereplication by High-Performance Liquid Chromatography (HPLC) with Quadrupole-Time-of-Flight Mass Spectroscopy (qTOF-MS) and Antiviral Activities of Phlorotannins from Ecklonia cava” (Marine Drugs, 2019):
“Also recorded” adds a separate entry of the source.

Tests used:
hemagglutinin = test: Western blot of viral protein synthesis in H1N1-infected MDCK cells, hemagglutinin; conditions: 5, 10, 20, and 40 μM, 24 h
Cytotoxicity assay (MTT) = conditions: dog
neuraminidase = test: Western blot of viral protein synthesis in H1N1-infected MDCK cells, neuraminidase; conditions: 5, 10, 20, and 40 μM, 24 h
in vitro = conditions: dog

| Structure (SMILES) | inhibition of hemagglutinin expression (viral protein synthesis, Western blot) (hemagglutinin) | CC50 at 48 h (Cytotoxicity assay (MTT)) | inhibition of neuraminidase expression (viral protein synthesis, Western blot) (neuraminidase) | CC50 at 48 h (in vitro) |
| --- | --- | --- | --- | --- |
| Oc1cc(O)cc(Oc2c(O)cc(O)c3c2Oc2c(O)cc4oc5c(Oc6cc(O)cc(O)c6)c(O)cc(O)c5c4c2O3)c1 [Compound 12, Phlorofucofuroeckol A] | decreased the expression of neuraminidase and hemagglutinin at 10 μM; also recorded: strongest inhibition capacity was observed at 40 µM; also recorded: strong inhibitory effects | > 100 µM | decreased the expression of neuraminidase and hemagglutinin at 10 μM; also recorded: strongest inhibition capacity was observed at 40 µM; also recorded: strong inhibitory effects | – |
| Oc1cc(O)cc(Oc2c(O)cc(O)c3c2Oc2c(O)cc(Oc4c(O)cc(Oc5c(O)cc(O)c6c5Oc5c(O)cc(O)cc5O6)cc4O)cc2O3)c1 [Compound 11, Dieckol] | – | > 100 µM | – | – |
| Oc1cc(O)c2c(c1)Oc1c(O)cc(O)cc1O2 [Compound 13, Dibenzo[1,4]dioxine-2,4,7,9-tetraol] | – | > 100 µM | – | – |
| Oc1cc(O)c2oc3cc(O)c4oc5cc(O)cc(O)c5oc4c3oc2c1 [Compound 14, Dioxinodehydroeckol] | – | – | – | > 100 µM |
